How the values were obtained:
[1] = biological target: T1, ERK1 (Homo sapiens, UniProt P27361); test: ERK1 Kinase Assay (TR-FRET); type: biochemical; details: Abs_IC50, ATP 10 μM, GFP-ATF2 substrate; ±0.20, n=7
T1 construct: purchased Invitrogen PR5254B
Experimental: The purpose of this assay is to measure the ability of compounds to inhibit ERK1 kinase activity. Perform the ERK1 kinase assay in vitro using a TR-FRET assay. Start reactions (12.5 μL) by adding 5 μL of ERK1 enzyme (Invitrogen, #PR5254B, final concentration 100 ng/mL) plus substrate GFP-ATF2 (Invitrogen, #PV4445, final concentration 0.2 μM), 5 μL of ATP solution (Invitrogen, #PV3227, final concentration 10 μM) prepared in kinase buffer (50 mM Hepes pH 7.4, 5 mM MgCl2, 0.1 mM EGTA, 0.01% Triton X-100, 1 mM DTT) and 2.5 μL of testing compounds in DMSO solution (final 4%, v/v) in a 384-well PROXIPLATE™ (Perkin Elmer, #GRN6260). Incubate the reaction mixture at room temperature for 60 minutes. Stop the reaction by addition of 12.5 μL of stop buffer (10 mM EDTA, 2 nM Tb-anti-pATF2 (pThr71) antibody, Invitrogen, #PV4448) in TR-FRET dilution buffer (Invitrogen, #PV3574). Incubate the plates at room temperature for an additional 60 minutes and read on an ENVISION® (PerkinElmer) plate reader at the excitation wavelength 340 nm Calculate the TR-FRET ratio by dividing the GFP acceptor emission signal (at 520 nm) by the Tb donor emission signal (at 495 nm). Calculate percent inhibition using compound treated wells relative to on-plate Max (DMSO control) and Min (No enzyme added) control wells TR-FRET ratio data {% inhibition=100−[(test compound−median Min)/(median Max−median Min)×100]}. […]

[2] = tested on: human colorectal cancer cells HCT116; test: Xenograft tumor model HCT116; type: in vivo, female athymic nude mice; details: oral gavage; for Delta T/C % or Regr %: negative = regression
Experimental: The purpose of this assay is to measure reduction in tumor volume in response to test compound administration. Expand human colorectal cancer cells HCT116 (ATCC, # CCL-247) in culture, harvest and inject 5×10e^6 cells in 200 μL of 1:1 HBSS+matrigel solution subcutaneously on to the rear right flank of female athymic nude mice (22-25 g, Harlan Laboratories). Expand human pancreatic cancer cells MIA PACA-2 (ATCC, # CRL-1420) or human non-small cell lung cancer cells CALU-6 (ATCC, #HTB-56) or human colorectal cancer cells COLO-205 (ATCC, #CCL-222) in culture, harvest and inject 5×10e^6 cells in 200 μL of 1:1 HBSS+matrigel solution subcutaneously on to the rear right flank of female athymic nude mice (22-25 g, Harlan Laboratories). Measure tumor growth and body weight twice per week beginning the seventh day after the implantation. When tumor sizes reach 200-400 mm^3, randomize animals and group into groups of eight to ten animals. Prepare test compound in an appropriate vehicle (vehicle: 1% HEC/0.25% Tween 80/0.05% Antifoam) and administer by oral gavage for 14 to 21 days. Tumor response is determined by tumor volume measurement performed twice a week during the course of treatment. Body weight is taken as a general measure of toxicity.
A compound within the scope of invention is tested in this assay run substantially as above.

[3] = tested on: human non-small cell lung cancer cells NCI-H2122 (KRAS_G12C); test: In vivo combination study, NCI-H2122 NSCLC xenograft model; set-up: species or system female athymic nude mice; details: single agent
Experimental: More specifically, the compound of Example 1 is tested in combination with either the pan-RAF inhibitor compound or the CDK4/6 inhibitor compound in HCT116, a KRAS mutant colorectal cancer xenograft model. Also, the compound of Example 1 is tested in combination with either the CDK4/6 inhibitor compound or DC101 in NCI-H441, A549, and NCI-H2122, KRAS mutant non-small cell lung cancer (NSCLC) xenograft models.
Combination efficacy is also tested in three KRAS mutant NSCLC xenograft models including A549 (KRAS_G12S) in SCID mice as well as NCI-H441 (KRAS_G12V) and NCI-H2122 (KRAS_G12C) in athymic nude mice. Expand human non-small cell lung cancer cells NCI-H441 (ATCC, #CRL-5807) and NCI-H2122 (ATCC, #CRL-5985) in culture, harvest and inject 5×10e^6 cells in 200 μL of 1:1 HBSS+matrigel solution subcutaneously on to the rear right flank of female athymic nude mice (20-22 gm, Harlan Laboratories). Expand human non-small cell lung cancer cells A549 (ATCC, #CC1-185) in culture, harvest and inject 5×10e^6 cells in 200 μL of 1:1 HBSS+matrigel solution subcutaneously on to the rear right flank of female CB-17 SCID mice (18-20 gm, Taconic Farms). For all cell lines, measure tumor growth and body weight twice per week beginning the seventh day after the implantation. When average tumor sizes reach 200-300 mm^3, randomize animals and group into groups of five to seven animals. Prepare test compound in an appropriate vehicle (see below) and administer by oral gavage (compound of Example 1 and the CDK4/6 inhibitor compound) or intraperitoneally (DC101) for 21 to 28 days. Tumor response is determined by tumor volume measurement performed twice a week during the course of treatment. Vehicle used in these studies is 1% HEC/0.25% Tween® 80/0.05% Antifoam. The compound of Example 1 is formulated in 1% HEC/0.25% Tween® 80/0.05% Antifoam and the CDK4/6 inhibitor compound is formulated in 1% HEC in 25 mM sodium phosphate buffer, pH 2. […] In the same NCI-H441 xenograft model, DC101 in phosphate buffer is also administered intraperitoneally twice per week (BIW) as a single agent or in combination with the compound of Example 1, 50 mpk, QD for 28 days.

T1 sequence (P27361 whole entry): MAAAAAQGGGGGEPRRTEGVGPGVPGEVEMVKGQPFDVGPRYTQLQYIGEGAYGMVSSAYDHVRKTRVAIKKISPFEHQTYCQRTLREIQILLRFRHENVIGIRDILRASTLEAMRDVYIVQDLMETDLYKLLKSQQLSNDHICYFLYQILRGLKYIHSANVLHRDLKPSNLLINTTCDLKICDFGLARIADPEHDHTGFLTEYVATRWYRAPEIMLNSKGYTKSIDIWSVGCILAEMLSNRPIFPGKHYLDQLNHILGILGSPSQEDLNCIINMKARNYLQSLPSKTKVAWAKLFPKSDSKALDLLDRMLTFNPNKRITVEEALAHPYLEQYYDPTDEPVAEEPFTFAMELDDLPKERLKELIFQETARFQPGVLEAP

In the case of `Cn1nccc1Nc1nccc(-c2cc3c(s2)C(C)(C)N(CCN2CCOCC2)C3=O)n1` [Example 1, 6,6-Dimethyl-2-{2-[(1-methyl-1H-pyrazol-5-yl)amino]pyrimidin-4-yl}-5-[2-(morpholin-4-yl)ethyl]-5,6-dihydro-4H-thieno[2,3-c]pyrrol-4-one], the IC50 [1] is reported as 4.86 nM, the TGI % ([2]; 25 mg/kg QD) is reported as 108% and the “Delta T/C % or Regr %” value ([2]; 25 mg/kg QD) is reported as −8%. The TGI % ([2]; 50 mg/kg QD) was 89%, the “Delta T/C % or Regr %” value ([2]; 50 mg/kg QD) was 11% and the TGI % ([2]; 100 mg/kg QD) was 125%. The “Delta T/C % or Regr %” value ([2]; 100 mg/kg QD) was −25%, the “Delta T/C %” value ([3]; 50 mg/kg QD, oral, 28 days) was 59% and the tumor growth inhibition ([3]; 50 mpk) was 41%.
